Experimental data from the supplement of paper PMC11208160.

test: recombinant barcode read abundance after kanamycin selection (control-corrected) (log10(CPM+1)); higher = more efficient recombination; sequences stand for … in AGTGCAGAGAAAATCGGCCAGTTTTCTCTGCCTGCAGTCCGCATGCCGT…ATTTATGCAGCGGACTGCCTTTCTCCCAAAGTGATAAACCGGACAGTATCATGGACCGGTTTTCCCGGTAATCCGTATTTGCAAGGTTGGTTTCACT; site = the 11-nt target
Summary of the method: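 Values are log10(CPM+1) from a pooled E. coli screen of targets paired with IS621 bridge RNA target-binding loops. Recombination efficiency here means counts per million of recombinant-junction barcodes, averaged and control-corrected. Plates were chloramphenicol/ampicillin LB agar for the control and chloramphenicol/ampicillin/kanamycin with 0.1 mM IPTG, two replicates each.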

Question: For “CGCGCCCCTTGGGTTCTAACCTGTTGCGGTC [CGCGCCCCTCC_LTGcore_CT_RTGcore_GA] (site CGCGCCCCTCC) (LTG core: CT, RTG core: GA)”, which “recombinant barcode read abundance (log10)” value is on record?
Answer: Its value is 0.041.

Question: Which “recombinant barcode read abundance (log10)” value does the source give for “CGCGCCCGCTGGGTTCTAACCTGTTGCGGAG [CGCGCCCCTCC_LTGcore_GC_RTGcore_CT] (site CGCGCCCCTCC) (LTG core: GC, RTG core: CT)” here?
Answer: Its value is 0.198.

Question: Which “recombinant barcode read abundance (log10)” value does the source give for “CGCGCCCGTTGGGTTCTAACCTGTTGCGGAC [CGCGCCCCTCC_LTGcore_GT_RTGcore_GT] (site CGCGCCCCTCC) (LTG core: GT, RTG core: GT)” here?
Answer: The value was 0.421.

Question: With “CGCGCCCTCTGGGTTCTAACCTGTTGCGGAG [CGCGCCCCTCC_LTGcore_TC_RTGcore_CT] (site CGCGCCCCTCC) (LTG core: TC, RTG core: CT)” as the sequence, how does the “recombinant barcode read abundance (log10)” value read?
Answer: Its value is 0.264.

Question: For “CGCGCCCTCTGGGTTCTAACCTGTTGCGGGA [CGCGCCCCTCC_LTGcore_TC_RTGcore_TC] (site CGCGCCCCTCC) (LTG core: TC, RTG core: TC)”, which “recombinant barcode read abundance (log10)” value is on record?
Answer: Its value is 0.307.

Question: For “CGCGCCCTGTGGGTTCTAACCTGTTGCGGCA [CGCGCCCCTCC_LTGcore_TG_RTGcore_TG] (site CGCGCCCCTCC) (LTG core: TG, RTG core: TG)”, which “recombinant barcode read abundance (log10)” value is on record?
Answer: Its value is 0.0883.

Question: For “CGCGCCCTTTGGGTTCTAACCTGTTGCGGAA [CGCGCCCCTCC_LTGcore_TT_RTGcore_TT] (site CGCGCCCCTCC) (LTG core: TT, RTG core: TT)”, which “recombinant barcode read abundance (log10)” value is on record?
Answer: Its value is 0.156.

Question: For “CGGTCCCAGTGGGTTCTAACCTGTTGCCACT [CGGTCCCCTTG_LTGcore_AG_RTGcore_AG] (site CGGTCCCCTTG) (LTG core: AG, RTG core: AG)”, which “recombinant barcode read abundance (log10)” value is on record?
Answer: The value was 0.258.

Question: For “CGGTCCCCTTGGGTTCTAACCTGTTGCCAAC [CGGTCCCCTTG_LTGcore_CT_RTGcore_GT] (site CGGTCCCCTTG) (LTG core: CT, RTG core: GT)”, which “recombinant barcode read abundance (log10)” value is on record?
Answer: Its value is 0.0684.

Question: For “CGGTCCCCTTGGGTTCTAACCTGTTGCCAAT [CGGTCCCCTTG_LTGcore_CT_RTGcore_AT] (site CGGTCCCCTTG) (LTG core: CT, RTG core: AT)”, which “recombinant barcode read abundance (log10)” value is on record?
Answer: Its value is 0.133.

Question: With “CGGTCCCCTTGGGTTCTAACCTGTTGCCACT [CGGTCCCCTTG_LTGcore_CT_RTGcore_AG] (site CGGTCCCCTTG) (LTG core: CT, RTG core: AG)” as the sequence, how does the “recombinant barcode read abundance (log10)” value read?
Answer: Its value is 0.0728.

Question: For “CGGTCCCGCTGGGTTCTAACCTGTTGCCAAG [CGGTCCCCTTG_LTGcore_GC_RTGcore_CT] (site CGGTCCCCTTG) (LTG core: GC, RTG core: CT)”, which “recombinant barcode read abundance (log10)” value is on record?
Answer: Its value is 0.313.

Question: With “CGGTCCCGCTGGGTTCTAACCTGTTGCCAGC [CGGTCCCCTTG_LTGcore_GC_RTGcore_GC] (site CGGTCCCCTTG) (LTG core: GC, RTG core: GC)” as the sequence, how does the “recombinant barcode read abundance (log10)” value read?
Answer: The value was 0.475.

Question: For “CGGTCCCGGTGGGTTCTAACCTGTTGCCACC [CGGTCCCCTTG_LTGcore_GG_RTGcore_GG] (site CGGTCCCCTTG) (LTG core: GG, RTG core: GG)”, which “recombinant barcode read abundance (log10)” value is on record?
Answer: Its value is 0.213.

Question: Which “recombinant barcode read abundance (log10)” value does the source give for “CGGTCCCTATGGGTTCTAACCTGTTGCCAAG [CGGTCCCCTTG_LTGcore_TA_RTGcore_CT] (site CGGTCCCCTTG) (LTG core: TA, RTG core: CT)” here?
Answer: The value was 0.0831.

Question: Which “recombinant barcode read abundance (log10)” value does the source give for “GAGCCCAAGTGGGTTCTAACCTGTTGCCTCT [GAGCCCACTAG_LTGcore_AG_RTGcore_AG] (site GAGCCCACTAG) (LTG core: AG, RTG core: AG)” here?
Answer: The value was 0.229.

Question: With “GAGCCCACATGGGTTCTAACCTGTTGCCTAG [GAGCCCACTAG_LTGcore_CA_RTGcore_CT] (site GAGCCCACTAG) (LTG core: CA, RTG core: CT)” as the sequence, how does the “recombinant barcode read abundance (log10)” value read?
Answer: Its value is 0.304.

Question: With “GAGCCCACTTGGGTTCTAACCTGTTGCCTCC [GAGCCCACTAG_LTGcore_CT_RTGcore_GG] (site GAGCCCACTAG) (LTG core: CT, RTG core: GG)” as the sequence, how does the “recombinant barcode read abundance (log10)” value read?
Answer: Its value is 0.136.

Question: Which “recombinant barcode read abundance (log10)” value does the source give for “GAGCCCACTTGGGTTCTAACCTGTTGCCTGA [GAGCCCACTAG_LTGcore_CT_RTGcore_TC] (site GAGCCCACTAG) (LTG core: CT, RTG core: TC)” here?
Answer: The value was 0.207.

Question: With “GAGCCCACTTGGGTTCTAACCTGTTGCCTGC [GAGCCCACTAG_LTGcore_CT_RTGcore_GC] (site GAGCCCACTAG) (LTG core: CT, RTG core: GC)” as the sequence, how does the “recombinant barcode read abundance (log10)” value read?
Answer: Its value is 0.3.

Question: Which “recombinant barcode read abundance (log10)” value does the source give for “GAGCCCACTTGGGTTCTAACCTGTTGCCTGG [GAGCCCACTAG_LTGcore_CT_RTGcore_CC] (site GAGCCCACTAG) (LTG core: CT, RTG core: CC)” here?
Answer: Its value is 0.911.

Question: With “GAGCCCACTTGGGTTCTAACCTGTTGCCTGT [GAGCCCACTAG_LTGcore_CT_RTGcore_AC] (site GAGCCCACTAG) (LTG core: CT, RTG core: AC)” as the sequence, how does the “recombinant barcode read abundance (log10)” value read?
Answer: Its value is 0.522.

Question: With “GAGCCCACTTGGGTTCTAACCTGTTGCCTTC [GAGCCCACTAG_LTGcore_CT_RTGcore_GA] (site GAGCCCACTAG) (LTG core: CT, RTG core: GA)” as the sequence, how does the “recombinant barcode read abundance (log10)” value read?
Answer: The value was 0.518.

Question: For “GAGCCCAGCTGGGTTCTAACCTGTTGCCTAG [GAGCCCACTAG_LTGcore_GC_RTGcore_CT] (site GAGCCCACTAG) (LTG core: GC, RTG core: CT)”, which “recombinant barcode read abundance (log10)” value is on record?
Answer: The value was 0.266.

Question: With “GAGCCCATGTGGGTTCTAACCTGTTGCCTCA [GAGCCCACTAG_LTGcore_TG_RTGcore_TG] (site GAGCCCACTAG) (LTG core: TG, RTG core: TG)” as the sequence, how does the “recombinant barcode read abundance (log10)” value read?
Answer: Its value is 0.995.

Question: For “GAGGCCTCTTGGGTTCTAACCTGTTGCCAAC [GAGGCCTCTTG_LTGcore_CT_RTGcore_GT] (site GAGGCCTCTTG) (LTG core: CT, RTG core: GT)”, which “recombinant barcode read abundance (log10)” value is on record?
Answer: Its value is 1.25.

Question: With “GAGGCCTCTTGGGTTCTAACCTGTTGCCAGA [GAGGCCTCTTG_LTGcore_CT_RTGcore_TC] (site GAGGCCTCTTG) (LTG core: CT, RTG core: TC)” as the sequence, how does the “recombinant barcode read abundance (log10)” value read?
Answer: The value was 0.245.

Question: With “GAGGCCTCTTGGGTTCTAACCTGTTGCCATG [GAGGCCTCTTG_LTGcore_CT_RTGcore_CA] (site GAGGCCTCTTG) (LTG core: CT, RTG core: CA)” as the sequence, how does the “recombinant barcode read abundance (log10)” value read?
Answer: Its value is 0.0789.

Question: Which “recombinant barcode read abundance (log10)” value does the source give for “GAGGCCTGGTGGGTTCTAACCTGTTGCCAAG [GAGGCCTCTTG_LTGcore_GG_RTGcore_CT] (site GAGGCCTCTTG) (LTG core: GG, RTG core: CT)” here?
Answer: Its value is 0.103.

Question: Which “recombinant barcode read abundance (log10)” value does the source give for “GAGGCCTGGTGGGTTCTAACCTGTTGCCACC [GAGGCCTCTTG_LTGcore_GG_RTGcore_GG] (site GAGGCCTCTTG) (LTG core: GG, RTG core: GG)” here?
Answer: The value was 0.445.

Question: For “GAGTCCAAATGGGTTCTAACCTGTTGCGTTT [GAGTCCACTAC_LTGcore_AA_RTGcore_AA] (site GAGTCCACTAC) (LTG core: AA, RTG core: AA)”, which “recombinant barcode read abundance (log10)” value is on record?
Answer: Its value is 0.0227.

Question: For “GAGTCCAACTGGGTTCTAACCTGTTGCGTGT [GAGTCCACTAC_LTGcore_AC_RTGcore_AC] (site GAGTCCACTAC) (LTG core: AC, RTG core: AC)”, which “recombinant barcode read abundance (log10)” value is on record?
Answer: Its value is 0.0932.

Question: With “GAGTCCAATTGGGTTCTAACCTGTTGCGTAG [GAGTCCACTAC_LTGcore_AT_RTGcore_CT] (site GAGTCCACTAC) (LTG core: AT, RTG core: CT)” as the sequence, how does the “recombinant barcode read abundance (log10)” value read?
Answer: The value was 0.156.

Question: With “GAGTCCACCTGGGTTCTAACCTGTTGCGTGG [GAGTCCACTAC_LTGcore_CC_RTGcore_CC] (site GAGTCCACTAC) (LTG core: CC, RTG core: CC)” as the sequence, how does the “recombinant barcode read abundance (log10)” value read?
Answer: Its value is 0.0684.

Question: With “GAGTCCACGTGGGTTCTAACCTGTTGCGTAG [GAGTCCACTAC_LTGcore_CG_RTGcore_CT] (site GAGTCCACTAC) (LTG core: CG, RTG core: CT)” as the sequence, how does the “recombinant barcode read abundance (log10)” value read?
Answer: Its value is 0.114.

Question: For “GAGTCCACTTGGGTTCTAACCTGTTGCGTAT [GAGTCCACTAC_LTGcore_CT_RTGcore_AT] (site GAGTCCACTAC) (LTG core: CT, RTG core: AT)”, which “recombinant barcode read abundance (log10)” value is on record?
Answer: The value was 0.389.

Question: Which “recombinant barcode read abundance (log10)” value does the source give for “GAGTCCACTTGGGTTCTAACCTGTTGCGTCG [GAGTCCACTAC_LTGcore_CT_RTGcore_CG] (site GAGTCCACTAC) (LTG core: CT, RTG core: CG)” here?
Answer: Its value is 0.702.

Question: Which “recombinant barcode read abundance (log10)” value does the source give for “GAGTCCAGCTGGGTTCTAACCTGTTGCGTAG [GAGTCCACTAC_LTGcore_GC_RTGcore_CT] (site GAGTCCACTAC) (LTG core: GC, RTG core: CT)” here?
Answer: Its value is 0.0179.

Question: With “GAGTCCAGTTGGGTTCTAACCTGTTGCGTAG [GAGTCCACTAC_LTGcore_GT_RTGcore_CT] (site GAGTCCACTAC) (LTG core: GT, RTG core: CT)” as the sequence, how does the “recombinant barcode read abundance (log10)” value read?
Answer: Its value is 0.283.

Question: Which “recombinant barcode read abundance (log10)” value does the source give for “GAGTCCATTTGGGTTCTAACCTGTTGCGTAA [GAGTCCACTAC_LTGcore_TT_RTGcore_TT] (site GAGTCCACTAC) (LTG core: TT, RTG core: TT)” here?
Answer: The value was 0.0342.

Question: For “GAGTCCTACTGGGTTCTAACCTGTTGCCTAG [GAGTCCTCTAG_LTGcore_AC_RTGcore_CT] (site GAGTCCTCTAG) (LTG core: AC, RTG core: CT)”, which “recombinant barcode read abundance (log10)” value is on record?
Answer: The value was 0.674.

Question: Which “recombinant barcode read abundance (log10)” value does the source give for “GAGTCCTACTGGGTTCTAACCTGTTGCCTGT [GAGTCCTCTAG_LTGcore_AC_RTGcore_AC] (site GAGTCCTCTAG) (LTG core: AC, RTG core: AC)” here?
Answer: The value was 0.011.

Question: For “GAGTCCTAGTGGGTTCTAACCTGTTGCCTAG [GAGTCCTCTAG_LTGcore_AG_RTGcore_CT] (site GAGTCCTCTAG) (LTG core: AG, RTG core: CT)”, which “recombinant barcode read abundance (log10)” value is on record?
Answer: The value was 0.445.

Question: Which “recombinant barcode read abundance (log10)” value does the source give for “GAGTCCTCATGGGTTCTAACCTGTTGCCTAG [GAGTCCTCTAG_LTGcore_CA_RTGcore_CT] (site GAGTCCTCTAG) (LTG core: CA, RTG core: CT)” here?
Answer: Its value is 1.08.

Question: For “GAGTCCTCCTGGGTTCTAACCTGTTGCCTGG [GAGTCCTCTAG_LTGcore_CC_RTGcore_CC] (site GAGTCCTCTAG) (LTG core: CC, RTG core: CC)”, which “recombinant barcode read abundance (log10)” value is on record?
Answer: The value was 0.561.
